In patent US10238649B2 (AB SCIENCE, priority 2012, dated 2019):

Columns and labels:
[1] = tested on: patients with unresectable pancreatic cancer; details: Moore et al. 2007; cited from earlier work
[2] = tested on: patients with metastatic pancreatic cancer; details: first-line, Conroy et al. 2011; cited from earlier work
[3] = tested on: patients with locally advanced, unresectable, or metastatic pancreatic adenocarcinoma; details: single agent, randomized trials; cited from earlier work
[4] = tested on: patients with advanced/metastatic pancreatic cancer; experiment: Ancillary pharmacogenomic study of AB07012, overall survival by gene expression predictor factors; format: in vivo, human; details: full cohort with genomic information (n=119)
[5] = tested on: Ba/F3 cells expressing human or mouse wild-type c-Kit; details: read-out: IC50, stem cell factor-induced proliferation and c-Kit tyrosine phosphorylation; cited from earlier work
[6] = tested on: Ba/F3 cells expressing PDGFR-α; details: read-out: 1050, PDGF-BB-stimulated proliferation and PDGFR-α tyrosine phosphorylation; cited from earlier work
[7] = target: discoidin domain receptor family member 1 (DDR1) kinase (Homo sapiens, UniProt Q08345); details: cited from earlier work
discoidin domain receptor family member 1 (DDR1) kinase, sequence (Q08345 19-913, species assumed): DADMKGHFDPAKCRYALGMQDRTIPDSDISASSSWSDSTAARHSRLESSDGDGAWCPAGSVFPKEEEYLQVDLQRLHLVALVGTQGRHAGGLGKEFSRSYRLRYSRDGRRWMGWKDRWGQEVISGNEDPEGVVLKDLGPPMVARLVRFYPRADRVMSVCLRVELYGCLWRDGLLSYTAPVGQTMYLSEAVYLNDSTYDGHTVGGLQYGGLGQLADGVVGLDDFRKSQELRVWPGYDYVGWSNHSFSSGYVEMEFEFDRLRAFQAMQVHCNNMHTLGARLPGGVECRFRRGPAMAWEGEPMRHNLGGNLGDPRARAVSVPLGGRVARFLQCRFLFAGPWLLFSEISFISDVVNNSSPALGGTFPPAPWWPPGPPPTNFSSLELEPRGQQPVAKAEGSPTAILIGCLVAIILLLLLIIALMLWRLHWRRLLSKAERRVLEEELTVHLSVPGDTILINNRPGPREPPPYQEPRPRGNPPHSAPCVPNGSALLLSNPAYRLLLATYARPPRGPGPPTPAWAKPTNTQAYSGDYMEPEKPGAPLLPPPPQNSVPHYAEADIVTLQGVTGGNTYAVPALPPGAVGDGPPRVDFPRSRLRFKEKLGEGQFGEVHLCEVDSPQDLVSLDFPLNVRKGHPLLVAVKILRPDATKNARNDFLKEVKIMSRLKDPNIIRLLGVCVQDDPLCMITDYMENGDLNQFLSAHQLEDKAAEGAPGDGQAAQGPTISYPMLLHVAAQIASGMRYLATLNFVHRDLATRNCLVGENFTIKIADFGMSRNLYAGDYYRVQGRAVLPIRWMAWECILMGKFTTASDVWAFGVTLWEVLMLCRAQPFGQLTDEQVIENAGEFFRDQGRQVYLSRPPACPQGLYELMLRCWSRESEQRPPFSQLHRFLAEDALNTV

[8] = tested on: human cord blood mast cells; details: cited from earlier work

Compound | 1-year survival rate [1] [%] | median OS [1] [months] | objective response rate [2] [%] | survival (months lived) [2] [months] | 12-month survival [3] | median survival [3] | median OS [4] [months] | IC50 [5] [nM] | IC50 [6] [nM] | inhibition of DDR1 autophosphorylation [7] | FcεRI-mediated degranulation of human cord blood mast cells [8]
Nc1ccn(C2OC(CO)C(O)C2(F)F)c(=O)n1 (stereo not shown) [gemcitabine, 4-amino-1-[3,3-difluoro-4-hydroxy-5-(hydroxymethyl)tetrahydrofuran-2-yl]-1H-pyrimidin-2-one] | 17 | 5.91 | 9.4 | 6.8 | approximately 20% | approximately 6 months |  |  |  |  | 
Cc1ccc(NC(=O)c2ccc(CN3CCN(C)CC3)cc2)cc1Nc1nc(-c2cccnc2)cs1 [masitinib, 4-(4-methylpiperazin-1-ylmethyl)-N-[4-methyl-3-(4-pyridin-3ylthiazol-2-ylamino)phenyl]benzamide] |  |  |  |  |  |  | 7.7 | 150 ± 80 | 300 ± 5 | pronounced inhibition | inhibition
Folfirinox |  |  | 31.6 | 11.1 |  |  |  |  |  |  | 
